Experimental data taken from patent publication US20250339461A1 (priority 2024, published 2025).
Entries after “also recorded” stand apart in the source; their conditions may differ.

Columns and labels:
migraine headache = details: human, in vivo
[1] = human, in vivo
nausea = details: human, in vivo
neuropathic facial pain = tested on: neuropathic facial pain; set-up: species or system human; details: in vivo

In the case of `C[C@@H]1[C@H](c2ccccc2)C[C@H](NC(=O)c2cnc3c(c2)C[C@@]2(C3)C(=O)Nc3ncccc32)C(=O)N1CC(F)(F)F` [Ubrelvy], the benefit for rescue (migraine headache) is reported as “not helpful”.

For `CN(C)CCC=C1c2ccccc2CCc2ccccc21` [amitriptyline], the “benefit as prophylactic agent for migraines” value (“benefit as prophylactic agent” below) (migraine headache) was “without benefit”.

For `NCC(CC(=O)O)c1ccc(Cl)cc1` (centres unmarked) [baclofen], the “benefit as prophylactic agent” value (migraine headache) was “without benefit”, the “benefit for migraine prophylaxis, history at first visit” value (“benefit … at first visit” below) (migraine headache) was “no benefit” and the “benefit from previous treatment” value (migraine headache) was “no benefit”.

In the case of `CCCCN1CCCCC1C(=O)Nc1c(C)cccc1C` (centres unmarked) [bupivacaine], the “pain after local anesthetic injection along superior nuchal line” value (migraine headache) is reported as “substantially improved for two days”.

With `Oc1ccc2c(c1)[C@@]13CCCC[C@@]1(O)[C@@H](C2)N(CC1CCC1)CC3` [butorphanol] the benefit for rescue (migraine headache) was “without benefit”.

For `NC(=O)N1c2ccccc2C=Cc2ccccc21` [carbamazepine], the “benefit as prophylactic agent” value (migraine headache) was “without benefit”.

With `COC1=C(OC)C(=O)C(C/C=C(\C)CC/C=C(\C)CC/C=C(\C)CC/C=C(\C)CC/C=C(\C)CC/C=C(\C)CC/C=C(\C)CC/C=C(\C)CC/C=C(\C)CCC=C(C)C)=C(C)C1=O` [coenzyme Q10] the “benefit as prophylactic agent” value (migraine headache) was “without benefit”, the benefit for prophylaxis (migraine headache) was “no benefit” and the “effect on frequency of headaches after 4-6 weeks” value (migraine headache) was “did not affect the frequency”.

With `O=C(O)Cc1ccccc1Nc1c(Cl)cccc1Cl` [diclofenac] the benefit for rescue (migraine headache) was “without benefit”.

For `CN1CCC[C@@H]1Cc1c[nH]c2ccc(CCS(=O)(=O)c3ccccc3)cc12` [eletriptan], the benefit for rescue (migraine headache) was “consistently effective”.

In the case of `NCC1(CC(=O)O)CCCCC1` [gabapentin], the “benefit as prophylactic agent” value (migraine headache) is reported as “without benefit”, the “benefit … at first visit” value (migraine headache) is reported as “no benefit” and the “benefit from previous treatment” value (migraine headache) is reported as “no benefit”.

In the case of `CC(C)Cc1ccc(C(C)C(=O)O)cc1` (centres unmarked) [ibuprofen], the “benefit from previous treatment” value (migraine headache) is reported as “no benefit”.

With `CCCCc1nc(Cl)c(CO)n1Cc1ccc(-c2ccccc2-c2nn[nH]n2)cc1` [losartan] the “benefit … at first visit” value (migraine headache) was “no benefit”.

In the case of `CCN(CC)CCNC(=O)c1cc(Cl)c(N)cc1OC` [metoclopramide], the tolerability [1] is reported as “intolerant”.

For `Cc1nccn1CC1CCc2c(c3ccccc3n2C)C1=O` (centres unmarked) [ondansetron], the effect on nausea (nausea) was “at times helpful for nausea”.

With `C[C@]12C=CC(=O)C=C1CC[C@@H]1[C@@H]2C(=O)C[C@@]2(C)[C@H]1CC[C@]2(O)C(=O)CO` [prednisone] the “benefit as prophylactic agent” value (migraine headache) was “without benefit”.

For `CC(C)C[C@H](CN)CC(=O)O` [pregabalin], the “effect on comorbid neuropathic facial pain” value (neuropathic facial pain) was “treated effectively” and the “benefit as prophylactic agent” value (migraine headache) was “without benefit”.

In the case of `CC(C)NCC(O)COc1cccc2ccccc12` (centres unmarked) [propranolol], the “benefit as prophylactic agent” value (migraine headache) is reported as “without benefit”, the “benefit from previous treatment” value (migraine headache) is reported as “no benefit” and the tolerability [1] is reported as “caused dizziness”.

For `Cc1cc2nc3c(=O)[nH]c(=O)nc-3n(C[C@H](O)[C@H](O)[C@H](O)CO)c2cc1C` [riboflavin], the “effect on frequency of headaches after 4-6 weeks” value (migraine headache) was “did not affect the frequency”.

In the case of `CN(C)CCc1c[nH]c2ccc(Cn3cncn3)cc12` [rizatriptan], the benefit for rescue (migraine headache) is reported as “no longer effective”, the “share of the time it worked for rescue” value (migraine headache) is reported as “approximately 20 % of the time” and the “adverse effect when tried for rescue” value [1] is reported as “severe elevation in their blood pressure”.

With `CNS(=O)(=O)Cc1ccc2[nH]cc(CCN(C)C)c2c1` [sumatriptan tablet, sumatriptan] the benefit for rescue (migraine headache) was “not helpful; also recorded: partially helpful; also recorded: without benefit”.

In the case of `Clc1ccc2nsnc2c1NC1=NCCN1` [tizanidine], the “benefit as prophylactic agent” value (migraine headache) is reported as “without benefit” and the benefit for prophylaxis (migraine headache) is reported as “partially helpful”.

For `CC1(C)O[C@@H]2[C@@H](CO[C@@]3(COS(N)(=O)=O)OC(C)(C)O[C@@H]23)O1` [topiramate], the “benefit as prophylactic agent” value (migraine headache) was “without benefit”, the “benefit for migraine prophylaxis” value (migraine headache) was “helped some” and the “benefit … at first visit” value (migraine headache) was “no benefit”. The “frequency of severe migraine headaches on treatment” value (migraine headache) was 5 to 7 days a week and the tolerability [1] was “could not tolerate the side effects”.

With `COc1cccc(C2(O)CCCCC2CN(C)C)c1` (centres unmarked) [tramadol] the benefit for rescue (migraine headache) was “partially helpful; also recorded: without benefit”.

For `CCCC(CCC)C(=O)O` [valproic acid], the “benefit as prophylactic agent” value (migraine headache) was “without benefit”.

In the case of `CN(C)CCc1c[nH]c2ccc(C[C@H]3COC(=O)N3)cc12` [zolmitriptan nasal spray, zolmitriptan], the benefit for rescue (migraine headache) is reported as “without benefit”.

With `NS(=O)(=O)Cc1noc2ccccc12` [zonisamide] the “benefit as prophylactic agent” value (migraine headache) was “without benefit”.

B1: Ajovy: prophylactic agent tried for migraines (antibody, chains of the INN, looked up, V domains shown)
VH: EVQLVESGGGLVQPGGSLRLSCAASGFTFSNYWISWVRQAPGKGLEWVAEIRSESDASATHYAEAVKGRFTISRDNAKNSLYLQMNSLRAEDTAVYYCLAYFDYGLAIQNYWGQGTLVTVSS
VL: EIVLTQSPATLSLSPGERATLSCKASKRVTTYVSWYQQKPGQAPRLLIYGASNRYLGIPARFSGSGSGTDFTLTISSLEPEDFAVYYCSQSYNYPYTFGQGTKLEIK
With B1 the “benefit as prophylactic agent” value (migraine headache) was “without benefit”.

B2: Emgality: prophylactic agent prescribed for chronic migraine (antibody, chains of the INN, looked up, V domains shown)
VH: QVQLVQSGAEVKKPGSSVKVSCKASGYTFGNYWMQWVRQAPGQGLEWMGAIYEGTGKTVYIQKFADRVTITADKSTSTAYMELSSLRSEDTAVYYCARLSDYVSGFGYWGQGTTVTVSS
VL: DIQMTQSPSSLSASVGDRVTITCRASKDISKYLNWYQQKPGKAPKLLIYYTSGYHSGVPSRFSGSGSGTDFTLTISSLQPEDFATYYCQQGDALPPTFGGGTKVEIK
For B2, the “benefit as prophylactic agent” value (migraine headache) was “without benefit”, the “benefit for migraine prophylaxis” value (migraine headache) was “significantly improved” and the “benefit … at first visit” value (migraine headache) was “had not noticed any obvious benefit”. The “benefit for migraine, subsequent treatment rounds” value (migraine headache) was “reduced the pain somewhat, but had not reduced the frequency or duration”, the “frequency of headaches with throbbing, light and sound sensitivity” value (migraine headache) was “once or twice per week” and the “migraine frequency on treatment” value (migraine headache) was 2 to 3 days/week. For the same molecule, the side effects [1] was “caused unwanted side effects”.
